Tested on: H9 embryonic stem cells
Type: cell-based, human
Conditions: low serum, on MEFS
Description: Controls for each group included cells plated on […]-coated dishes and cultured in MEF-conditioned medium or cells plated on MEFs and cultured in ES medium. All groups contained three biological replicates and each biological replicate was repeated on two separate gene chips.
Sample preparation, hybridization, and image analysis were performed according to the Affymetrix Human Genome U133 Plus 2.0 Array. Following normalization and a log transformation, data analysis was performed using OmniViz® software (MA) and […] (VizXLabs, WA). Significant differences in gene expression between the samples were evaluated using analysis of variance and an F-test with adjusted P-value (Benjamini and
Hochberg correction) of ≦b 0.05. Only genes with a present call in at least one group were included in the analysis.

## Activin A: a member of the TGFβ superfamily; R&D Systems; Group 2 = Activin A (100 ng/ml)
  log intensity, bHLH factor Hes4 (LOC57801): 2.4
  log intensity, beta3GalNAcT-1 mRNA for globoside synthase, clone: type 2: −0.0984
  log intensity, bone morphogenetic protein 2 (BMP2): 5.029
  log intensity, bone morphogenetic protein 5 (BMP5): 0.6148
  log intensity, bromodomain and PHD finger containing, 3: 0.3694
  log intensity, c-mer proto-oncogene tyrosine kinase (MERTK): 3.617
  log intensity, cDNA FLJ11390 fis, clone HEMBA1000561: 0.3644
  log intensity, cDNA FLJ13221 fis, clone NT2RP4002075: 1.082
  log intensity, cDNA FLJ13392 fis, clone PLACE1001280: 1.169
  log intensity, cDNA FLJ13810 fis, clone THYRO1000279: −0.8532
  log intensity, cDNA FLJ30081 fis, clone BGGI12000693: 1.125
  log intensity, cDNA FLJ34035 fis, clone FCBBF2004788: −2.008
  log intensity, cDNA FLJ36116 fis, clone TESTI2022338: 6.155
  log intensity, cDNA: FLJ22731 fis, clone HSI15841: 2.241
  log intensity, cDNA: FLJ22808 fis, clone KAIA2925: 2.414
  log intensity, cDNA: FLJ23067 fis, clone LNG04993: 0.8825
  log intensity, calmegin (CLGN): 3.111
  log intensity, cardiac ankyrin repeat protein (CARP): 1.987
  log intensity, cartilage linking protein 1: 0.9872
  log intensity, caspase-like apoptosis regulatory protein 2 (clarp): 5.2167
  log intensity, chemokine receptor CXCR4 mRNA: 5.669
  log intensity, cleft lip and palate associated transmembrane protein 1, clone MGC: 10593: 0.5567
  log intensity, clone FLC1492 PRO3121 mRNA: −3.392
  log intensity, clone HB-2 mRNA sequence: 1.252
  log intensity, clone IMAGE: 3509274, mRNA, partial cds: 0.7945
  log intensity, clone IMAGE: 4047715, mRNA: 1.527
  log intensity, clone MGC: 14801: 1.511
  log intensity, clone MGC: 24252 IMAGE: 3932604: 1.593
  log intensity, clone TUA8 Cri-du-chat region mRNA: 1.497
  log intensity, collagen, type V, alpha 1: 1.666
  log intensity, complement component 5 (C5): 1.596
  log intensity, core histone macroH2A2.2 (MACROH2A2): 3.662
  log intensity, cystatin C (amyloid angiopathy and cerebral hemorrhage) (CST3): 3.52
  log intensity, deiodinase, iodothyronine, type III (DIO3): 4.229
  log intensity, dickkopf (Xenopus laevis) homolog 1 (DKK1): 1.09
  log intensity, dual specificity phosphatase 4, clone MGC: 3713: 5.601
  log intensity, dynein, axonemal, light polypeptide 4 (DNAL4): 1.8494
  log intensity, dystrophin (muscular dystrophy, Duchenne and Becker types) (DMD), transcript variant Dp427p2: 3.044
  log intensity, ectodermal dysplasia 1, anhidrotic (ED1): 3.078
  log intensity, elongation of very long chain fatty acids (FEN1Elo2, SUR4Elo3, yeast)-like 2 (ELOVL2): 1.508
  log intensity, endothelin receptor type A (EDNRA), mRNA: 3.552
  log intensity, endothelin receptor type A (r1027): 1.954
  log intensity, enolase 2, (gamma, neuronal) (ENO2): 3.926
  log intensity, eomesodermin (Xenopus laevis) homolog (EOMES): 4.898
  log intensity, erythrocyte membrane protein band 4.9 (dematin) (EPB49): 0.9238
  log intensity, fasciculation and elongation protein zeta 1 (zygin I) (FEZ1), transcript variant 1: 2.203
  log intensity, forkhead box F2 (FOXF2): −1.115
  log intensity, gelsolin (amyloidosis, Finnish type) (GSN): 4.45
  log intensity, glucose-6-phosphate transporter (G6PT) gene, G6PT-Dt allele: 0.4077
  log intensity, glutathione S-transferase A2 (GSTA2): −0.4221
  log intensity, glycoprotein M6A: 2.3278
  log intensity, guanylate cyclase activator 1B (retina) (GUCA1B): 0.685
  log intensity, heparan sulfate proteoglycan 2 (perlecan): −0.9721
  log intensity, hexabrachion (tenascin C, cytotactin) (HXB): 2.854
  log intensity, high mobility group protein-R: 0.09529
  log intensity, hypothetical protein BC017868 (LOC159091): 0.4016
  log intensity, hypothetical protein DKFZp434F0318: 0.3947
  log intensity, hypothetical protein DKFZp434F2322: 1.421
  log intensity, hypothetical protein DKFZp564B052: 2.003
  log intensity, hypothetical protein FLJ10312: 4.892
  log intensity, hypothetical protein FLJ11155: −0.7126
  log intensity, hypothetical protein FLJ11560: 1.807
  log intensity, hypothetical protein FLJ12538 similar to ras-related protein RAB17: 4.734
  log intensity, hypothetical protein FLJ12666 (r758): 1.405
  log intensity, hypothetical protein FLJ12666 (r998): 4.028
  log intensity, hypothetical protein FLJ12838: 3.152
  log intensity, hypothetical protein FLJ21195 similar to protein related to DAC and cerberus: 0.764
  log intensity, hypothetical protein FLJ22471: 3.1349
  log intensity, hypothetical protein FLJ23091: 3.042
  log intensity, hypothetical protein FLJ23514: 5.247
  log intensity, hypothetical protein FLJ32835: 3.947
  log intensity, hypothetical protein MGC2865, clone MGC: 20246: −1.506
  log intensity, insulin-like growth factor binding protein 6 (IGFBP6): 3.304
  log intensity, keratin 19 (KRT19): 5.919
  log intensity, kidney-specific membrane protein NX-17: 3.45
  log intensity, lipase mRNA: 0.5585
  log intensity, lymphocyte antigen 6 complex, locus E (LY6E): 4.926
  log intensity, mRNA for KIAA0876 protein: 0.07325
  log intensity, mRNA for KIAA1161 protein: 1.981
  log intensity, mRNA for MSX-2: 1.945
  log intensity, mRNA for protein-tyrosine kinase: 1.042
  log intensity, mRNA; cDNA DKFZp434E082: 2.943
  log intensity, mRNA; cDNA DKFZp434K0621: 2.214
  log intensity, mRNA; cDNA DKFZp434P228: 3.113
  log intensity, mRNA; cDNA DKFZp547H236: 2.081
  log intensity, mRNA; cDNA DKFZp564K1672: 6.335
  log intensity, mRNA; cDNA DKFZp586G2120: 0.523
  log intensity, mRNA; cDNA DKFZp586L0120: 1.28
  log intensity, mRNA; cDNA DKFZp762H185: 3.792
  log intensity, mandaselin long form: 1.2296
  log intensity, matrix metalloproteinase 15 (membrane-inserted) (MMP15): 1.8336
  log intensity, microseminoprotein, beta-(MSMB): 0.1699
  log intensity, mitogen-activated protein kinase 10 (MAPK10): 2.286
  log intensity, nuclear factor of kappa light polypeptide gene enhancer in B-cells inhibitor, alpha: 5.478
  log intensity, nuclear receptor subfamily 0, group B, member 1 (NR0B1) (r534): 1.279
  log intensity, nuclear receptor subfamily 0, group B, member 1 (NR0B1) (r1079): 3.298
  log intensity, nudix (nucleoside diphosphate linked moiety X)-type motif 4: 5.689
  log intensity, olfactory receptor, family 52, subfamily A, member 1 (OR52A1): 0.6365
  log intensity, oxoglutarate dehydrogenase (lipoamide) (OGDH): −0.3853
  log intensity, partial LHX9 gene for LIM-homeobox 9, 3UTR: −0.1342
  log intensity, partial mRNA for putative nuclear factor: 2.679
  log intensity, phosphatidylinositol-4-phosphate 5-kinase, type I, beta (PIP5K1B): 2.467
  log intensity, phosphofructokinase, liver (PFKL): 2.704
  log intensity, pilin-like transcription factor (PILB): 4.382
  log intensity, pleiomorphic adenoma gene-like 1: 0.2215
  log intensity, plexin A2: 2.742
  log intensity, polycythemia rubra vera 1; cell surface receptor (PRV1): 0.9374
  log intensity, porcupine (MG61): 3.681
  log intensity, protease, serine, 4 (trypsin 4, brain): 3.359
  log intensity, protein S (alpha) (PROS1): 1.7883
  log intensity, protocadherin 10: 2.986
  log intensity, putative 47 kDa protein (r448): 1.052
  log intensity, putative 47 kDa protein (r770): 0.8617
  log intensity, putative sterol reductase SR-1 (TM7SF2): 2.478
  log intensity, ras homolog gene family, member B: 0.07189
  log intensity, receptor tyrosine kinase-like orphan receptor 2 (ROR2): 3.056
  log intensity, regulator of G protein signalling 5 (RGS5): 3.951
  log intensity, ret finger protein-like 2 (RFPL2): 0.5039
  log intensity, secreted apoptosis related protein 2 (SARP2): 5.743
  log intensity, secreted frizzled-related protein 1: 4.218
  log intensity, sialyltransferase (STHM): 1.503
  log intensity, signal transducer and activator of transcription 3 (acute-phase response factor): 0.5602
  log intensity, singed (Drosophila)-like (sea urchin fascin homolog like) (SNL): 5.254
  log intensity, sodium dependent phosphate transporter isoform NaPi-IIb: 0.232
  log intensity, solute carrier (SLC25A18): −1.1
  log intensity, solute carrier family 9 (sodiumhydrogen exchanger), isoform 5 (SLC9A5): 1.196
  log intensity, stanniocalcin 1 (STC1), mRNA: 5.28
  log intensity, stanniocalcin 1 (r1113): 5.701
  log intensity, testican 3 (HSAJ1454): 1.551
  log intensity, testis enhanced gene transcript (BAX inhibitor 1): 1.317
  log intensity, thyrotropin-releasing hormone (TRH): −0.2584
  log intensity, transcription factor 2, hepatic; LF-B3; variant hepatic nuclear factor (TCF2), transcript variant a: 2.543
  log intensity, transcriptional activator of the c-fos promoter (CROC4): 3.225
  log intensity, transmembrane tyrosine kinase mRNA: 1.932
  log intensity, tropomodulin, clone MGC: 3643: 1.464
  log intensity, tryptase, alpha: 3.764
  log intensity, tudor repeat associator with PCTAIRE 2: 3.275
  log intensity, tyrosine 3-monooxygenasetryptophan 5-monooxygenase activation protein, eta polypeptide (r705): 4.608
  log intensity, tyrosine 3-monooxygenasetryptophan 5-monooxygenase activation protein, eta polypeptide (r966): 4.926
